From patent US8247377B2, “Non-steroidal glucocorticoid inhibitors and their use in treating inflammation, allergy and auto-immune conditions” (Glaxo Group Limited, priority 2006, dated 2012)

Key:
progesterone receptor = target: T1, progesterone receptor (Homo sapiens, UniProt P06401); assay: Assay for progesterone receptor activity (CV-1 cells, PRb-BacMam/MMTV-BacMam); format: cell-based; conditions: CV-1 cells transduced with PRb-BacMam and MMTV-BacMam; read-out: pEC50 progesterone receptor activity (converted)
T1 construct: expressed in transfected cells; host or cells: CV-1 cells transduced with PRb-BacMam and MMTV-BacMam
T1 sequence (P06401 1-933): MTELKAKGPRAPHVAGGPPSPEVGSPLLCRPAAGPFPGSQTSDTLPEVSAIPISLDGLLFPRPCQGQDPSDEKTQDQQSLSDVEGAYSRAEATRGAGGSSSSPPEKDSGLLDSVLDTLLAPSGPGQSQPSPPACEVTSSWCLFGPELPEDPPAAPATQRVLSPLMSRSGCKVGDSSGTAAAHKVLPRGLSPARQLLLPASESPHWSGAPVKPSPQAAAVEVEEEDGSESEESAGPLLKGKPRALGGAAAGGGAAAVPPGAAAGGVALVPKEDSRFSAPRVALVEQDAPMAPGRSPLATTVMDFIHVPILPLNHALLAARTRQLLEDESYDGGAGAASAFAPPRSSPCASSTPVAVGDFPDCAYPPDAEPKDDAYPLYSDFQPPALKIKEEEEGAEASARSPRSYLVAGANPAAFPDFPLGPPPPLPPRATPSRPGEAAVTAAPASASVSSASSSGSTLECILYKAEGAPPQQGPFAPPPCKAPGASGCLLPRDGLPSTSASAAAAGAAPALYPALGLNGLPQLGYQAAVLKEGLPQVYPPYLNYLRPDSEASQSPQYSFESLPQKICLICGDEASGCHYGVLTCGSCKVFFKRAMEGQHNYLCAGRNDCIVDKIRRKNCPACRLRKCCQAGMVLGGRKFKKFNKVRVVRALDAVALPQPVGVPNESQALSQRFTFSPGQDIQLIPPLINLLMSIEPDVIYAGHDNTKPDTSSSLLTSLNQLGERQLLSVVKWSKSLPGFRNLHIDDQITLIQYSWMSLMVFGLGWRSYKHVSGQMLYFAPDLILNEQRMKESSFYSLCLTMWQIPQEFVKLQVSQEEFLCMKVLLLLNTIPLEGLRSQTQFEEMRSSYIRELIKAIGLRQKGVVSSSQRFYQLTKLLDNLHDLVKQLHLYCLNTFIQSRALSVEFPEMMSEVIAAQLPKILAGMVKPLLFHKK
Method in brief: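 CV-1 cells co-transduced with PRb-BacMam and MMTV-BacMam (10% each), seeded onto compounds in DMEM with 10% serum. After 24 h, luminescence was read with Steadylite. pEC50 values were estimated from dose-response curves.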

MMTV promoter = assay: MMTV agonist assay in A549 MMTV cells; format: cell-based; conditions: Homo sapiens, A549, 6 h, >85% = full agonist, >20% and <85% = partial or efficacy selective agonist, read-out: average maximum asymptote in the MMTV agonist assay
From the text: Human lung carcinoma A549 cell line (ECACC No. 86012804) has been stably transfected in house with a plasmid containing a renilla luciferase reporter with an MMTV promoter. Stimulation of the cell line with GR agonists results in intracellular signal transduction and ultimately translocation of GR into the nucleus. This activates the inserted DNA sequence resulting in transcription of the integrated luciferase gene, which is quantified using a light emission. The stably transfected cell line was grown as a monolayer in DMEM supplemented with FCS-HI (10%), Non-essential amino acids (1%), L-Glutamine (2 mM), Pen/Strep (1%) and Geneticin (50 mg/ml).
A 90% confluent T175 flask of A549 MMTV cells was harvested by centrifugation for 5 min at 200 g, resuspended in assay buffer (DMEM supplemented with 10% FCS 2×HI, 2 mM Glutamax, Non essential amino acids and 25 mM HEPES) and diluted to 0.1×10^6/ml. 70 μl of cell solution was dispensed to each well of white Nunc 384-well plates, containing compound at the required concentration. Plates were incubated for 6 h at 37° C., 95% humidity, 5% CO2. Plates were equilibrated to room temperature for 1 h prior to the addition of 10 μl of Renilla substrate to each well of assay plates. The plates were covered to protect the reagents from light, and then incubated at room temperature for approximately 15 mins before reading them on a Viewlux. Dose response curves were constructed from which pEC50 and maximum asymptote values were estimated.

glucocorticoid receptor = target: T2, glucocorticoid receptor (Homo sapiens, UniProt P04150); assay: Glucocorticoid receptor binding assay (fluorescence polarisation); conditions: competition with Alexa 555 fluorescently-labelled dexamethasone derivative, full length glucocorticoid receptor; read-out: glucocorticoid binding pIC50 (converted)
T2 construct: a partially purified full length glucocorticoid receptor
T2 sequence (P04150 1-777): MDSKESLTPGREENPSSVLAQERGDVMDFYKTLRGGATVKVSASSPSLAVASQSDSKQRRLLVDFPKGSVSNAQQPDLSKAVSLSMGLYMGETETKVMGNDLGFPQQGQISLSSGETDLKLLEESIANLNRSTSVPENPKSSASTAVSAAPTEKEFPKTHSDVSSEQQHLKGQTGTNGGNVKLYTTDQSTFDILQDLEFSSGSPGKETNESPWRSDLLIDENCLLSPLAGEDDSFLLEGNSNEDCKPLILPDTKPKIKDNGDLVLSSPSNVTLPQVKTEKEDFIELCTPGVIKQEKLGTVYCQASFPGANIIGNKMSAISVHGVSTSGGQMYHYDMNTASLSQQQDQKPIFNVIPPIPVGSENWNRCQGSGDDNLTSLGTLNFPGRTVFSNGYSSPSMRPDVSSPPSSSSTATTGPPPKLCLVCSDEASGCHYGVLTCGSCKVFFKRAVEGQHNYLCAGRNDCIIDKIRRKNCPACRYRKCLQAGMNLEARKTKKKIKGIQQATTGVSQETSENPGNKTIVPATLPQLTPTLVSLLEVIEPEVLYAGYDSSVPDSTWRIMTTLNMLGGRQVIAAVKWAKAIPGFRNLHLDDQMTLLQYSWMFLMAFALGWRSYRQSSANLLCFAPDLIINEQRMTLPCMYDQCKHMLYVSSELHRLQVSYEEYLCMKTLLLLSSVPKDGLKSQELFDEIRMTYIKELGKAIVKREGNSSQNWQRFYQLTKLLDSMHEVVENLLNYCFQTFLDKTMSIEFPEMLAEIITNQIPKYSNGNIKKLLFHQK
Method in brief: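 Compounds in DMSO incubated with fluorescent dexamethasone and partially purified full-length GR plus stabilising buffer components, 2 hrs at room temperature in the dark. Displacement read as decrease in fluorescence polarisation; pIC50 estimated from dose-response curves.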

| SMILES | EC50 (progesterone receptor) | Emax (MMTV promoter) | IC50 (glucocorticoid receptor) |
| --- | --- | --- | --- |
| CN(CC(O)(CNC(=O)c1cnn(-c2ccc(F)cc2)c1N)C(F)(F)F)C(=O)c1c(Cl)cccc1Cl (racemic) [Example 1 (racemic), 5-Amino-N-(2-{[[(2,6-dichlorophenyl)carbonyl](methyl)amino]methyl}-3,3,3-trifluoro-2-hydroxypropyl)-1-(4-fluorophenyl)-1H-pyrazole-4-carboxamide] | > 1000 nM | > 85% | ≤ 316 nM |
| CCN(CC(O)(CNC(=O)c1cnn(-c2ccc(F)cc2)c1N)C(F)(F)F)C(=O)c1c(Cl)cccc1Cl (racemic) [Example 2 (racemic), 5-Amino-N-(2-{[[(2,6-dichlorophenyl)carbonyl](ethyl)amino]methyl}-3,3,3-trifluoro-2-hydroxypropyl)-1-(4-fluorophenyl)-1H-pyrazole-4-carboxamide] | > 1000 nM | > 85% | ≤ 316 nM |
| Nc1c(C(=O)NCC(O)(CNC(=O)c2c(Cl)cccc2Cl)C(F)(F)F)cnn1-c1ccc(F)cc1 (racemic) [Example 3 (racemic), 5-Amino-N-[2-({[(2,6-dichlorophenyl)carbonyl]amino}methyl)-3,3,3-trifluoro-2-hydroxypropyl]-1-(4-fluorophenyl)-1H-pyrazole-4-carboxamide] | > 1000 nM | 20 to 85% | ≤ 316 nM |
| CCN(CC(O)(CNC(=O)c1cnn(-c2ccc(F)cc2)c1N)C(F)(F)F)C(=O)c1c(F)cccc1Cl (racemic) [Example 4 (racemic), 5-Amino-N-(2-{[[(2-chloro-6-fluorophenyl)carbonyl](ethyl)amino]methyl}-3,3,3-trifluoro-2-hydroxypropyl)-1-(4-fluorophenyl)-1H-pyrazole-4-carboxamide] | > 1000 nM | > 85% | ≤ 316 nM |
| CCN(CC(O)(CNC(=O)c1cnn(-c2ccc(F)cc2)c1N)C(F)(F)F)C(=O)c1c(F)cccc1F (racemic) [Example 5 (racemic), 5-Amino-N-(2-{[[(2,6-difluorophenyl)carbonyl](ethyl)amino]methyl}-3,3,3-trifluoro-2-hydroxypropyl)-1-(4-fluorophenyl)-1H-pyrazole-4-carboxamide] | > 1000 nM | > 85% | ≤ 316 nM |
| Nc1c(C(=O)NCC(O)(CNC(=O)c2c(F)cccc2Cl)C(F)(F)F)cnn1-c1ccc(F)cc1 (racemic) [Example 7 (racemic), 5-Amino-N-[2-({[(2-chloro-6-fluorophenyl)carbonyl]amino}methyl)-3,3,3-trifluoro-2-hydroxypropyl]-1-(4-fluorophenyl)-1H-pyrazole-4-carboxamide] | > 1000 nM | 20 to 85% | ≤ 316 nM |
| CN(CC(O)(CNC(=O)c1cnn(-c2ccc(F)cc2)c1N)C(F)(F)F)C(=O)c1c(F)cccc1F (racemic) [Example 8 (racemic), 5-Amino-N-(2-{[[(2,6-difluorophenyl)carbonyl](methyl)amino]methyl}-3,3,3-trifluoro-2-hydroxypropyl)-1-(4-fluorophenyl)-1H-pyrazole-4-carboxamide] | > 1000 nM | > 85% | ≤ 316 nM |
| CN(CC(O)(CNC(=O)c1cnn(-c2ccc(F)cc2)c1N)C(F)(F)F)C(=O)c1c(F)cccc1Cl (racemic) [Example 9 (racemic), 5-Amino-N-(2-{[[(2-chloro-6-fluorophenyl)carbonyl](methyl)amino]methyl}-3,3,3-trifluoro-2-hydroxypropyl)-1-(4-fluorophenyl)-1H-pyrazole-4-carboxamide] | > 1000 nM | > 85% | ≤ 316 nM |
| CCN(CC(O)(CNC(=O)c1cnn(-c2ccc(F)cc2)c1N)C(F)(F)F)C(=O)c1ccccc1S(C)(=O)=O (racemic) [Example 10 (racemic), 5-Amino-N-{2-[(ethyl{[2-(methylsulfonyl)phenyl]carbonyl}amino)methyl]-3,3,3-trifluoro-2-hydroxypropyl}-1-(4-fluorophenyl)-1H-pyrazole-4-carboxamide] | > 1000 nM | > 85% | ≤ 316 nM |
| Nc1c(C(=O)NCC(O)(CNC(=O)c2c(Br)cccc2Br)C(F)(F)F)cnn1-c1ccc(F)cc1 (racemic) [Example 11 (racemic), 5-Amino-N-[2-({[(2,6-dibromophenyl)carbonyl]amino}methyl)-3,3,3-trifluoro-2-hydroxypropyl]-1-(4-fluorophenyl)-1H-pyrazole-4-carboxamide] | > 1000 nM | 20 to 85% | ≤ 316 nM |
| Nc1c(C(=O)NCC(O)(CNC(=O)c2c(Cl)cccc2Br)C(F)(F)F)cnn1-c1ccc(F)cc1 (racemic) [Example 12 (racemic), 5-Amino-N-[2-({[(2-bromo-6-chlorophenyl)carbonyl]amino}methyl)-3,3,3-trifluoro-2-hydroxypropyl]-1-(4-fluorophenyl)-1H-pyrazole-4-carboxamide] | > 1000 nM | 20 to 85% | ≤ 316 nM |
| Nc1c(C(=O)NCC(O)(CNC(=O)c2c(F)cccc2Br)C(F)(F)F)cnn1-c1ccc(F)cc1 (racemic) [Example 13 (racemic), 5-Amino-N-[2-({[(2-bromo-6-fluorophenyl)carbonyl]amino}methyl)-3,3,3-trifluoro-2-hydroxypropyl]-1-(4-fluorophenyl)-1H-pyrazole-4-carboxamide] | > 1000 nM | 20 to 85% | ≤ 316 nM |
| Nc1c(C(=O)NCC(O)(CNC(=O)c2c(Cl)cccc2OC(F)F)C(F)(F)F)cnn1-c1ccc(F)cc1 (racemic) [Example 14 (racemic), 5-Amino-N-(2-{[({2-chloro-6-[(difluoromethyl)oxy]phenyl}carbonyl)amino]methyl}-3,3,3-trifluoro-2-hydroxypropyl)-1-(4-fluorophenyl)-1H-pyrazole-4-carboxamide] | > 1000 nM | 20 to 85% | ≤ 316 nM |
